Source: patent US20210388337A1, “PROTEIN-POLYMER CONJUGATES AND METHODS FOR THEIR PREPARATION” (Carnegie Mellon University, priority 2018, published 2021)

Legend:
native avidin [1] = target: T1, native avidin (Gallus gallus, UniProt P02701); experiment: Biotin effect on quenched fluorescence; format: binding; settings: native avidin 5 μM; free initiator or free initiation inhibitor 5.12 mM; biotin 10 μM
T1 construct: Avidin is a tetrameric protein purified from egg white; purchased Lee Biosolutions; host or cells: egg white
Procedure: Biotin effect on quenched fluorescence: […] Free initiator (10 μL, final concentrations 5.12 mM) or free initiation inhibitor (10 μL, final concentrations 5.12 mM) were added to avidin solution and florescence intensities were measured. After the fluorescence intensities were recorded with free initiator or free initiation inhibitor, biotin (10 μL, final concentration 10 μM) was added to the mixture and fluorescence intensities were measured again.

native avidin [2] = target: T1, native avidin; experiment: Tryptophan fluorescence quenching assay; format: binding; settings: native avidin 5 μM; added at 20 μM-5.12 mM
Procedure: Tryptophan fluorescence quenching assay: Intrinsic tryptophan fluorescence intensity of native avidin (180 μL, final concentration 5 μM) was measured at an excitation wavelength of 270 nm and emission of 300-400 nm in a 96-well plate. N-2-bromo-2-methylpropanoyl-β-alanine (free initiator) (20 μL, final concentrations 20 μM, 80 μM, 320 μM, 1.28 mM, 5.12 mM) or N-2-methylpropanoyl-β-alanine (free initiation inhibitor) (20 μL, final concentrations 20 μM, 80 μM, 320 μM, 1.28 mM, 5.12 mM) were added to native avidin and tryptophan fluorescence was measured again.

[3] = Hydrodynamic diameter by dynamic light scattering; format: physicochemical; settings: DLS; for substrate size (Dh): biotinylated substrates, text and FIG. 10 legend
Procedure: Measuring conjugate hydrodynamic diameter: The DLS data was collected on a Malvern Zetasizer nano-ZS. Native avidin and avidin conjugates ([…]) were dissolved in 0.1 M sodium phosphate, pH 8. The hydrodynamic diameter (Dh) of the samples was measured three times (12 runs/measurement). Reported values are number distribution intensities.
Instrumentation and Sample Analysis Preparations: ^1H and ^13C NMR were recorded on a spectrometer (300 MHz, 75 MHz, Bruker Avance™ 300), with deuterium oxide (D2O), DMSO-d6, and CDCl3. Routine FT-IR spectra were obtained with a Nicolet Magna-IR 560 spectrometer (Thermo). UV-VIS spectra were obtained and used for protein concentration determination using a UV-VIS spectrometer (Lambda 2, PerkinElmer). Melting points (mp) were measured with a Laboratory Devices Mel-Temp. Number and weight average molecular weights (Mn and Mw) and the polydispersity index (Mw/Mn) were estimated by gel permeation chromatography (GPC) on a Water 2695 Series with a data processor, equipped with three columns (Waters Ultrahydrogel Linier, 500 and 250), using Dulbecco's Phosphate Buffered Saline with 0.02 wt % sodium azide as an eluent at flow rate 1.0 mL/min, with detection by a refractive index (RI) detector. Pullulan standards (PSS-Polymer Standards Service—USA Inc., Amherst, Mass.) were used for calibration. Matrix-Assisted Laser Desorption Ionization Time-of-Flight Spectrometry (MALDI-ToF MS) was performed with a Perseptive Biosystems Voyager Elite MALDI-TOF spectrometer. Dynamic Light Scattering (DLS) data were collected on a Malvern Zetasizer nano-ZS. The concentration of the sample solution was kept at 1.0 mg/mL. The hydrodynamic diameter of samples was measured three times (5 run to each measurement, reported as number distribution) in 0.1 M sodium phosphate, pH 8. Biotin and bio-PEG binding kinetics were measured using a stopped-flow spectrometer with fluorescence detection (Applied Photophysics SX20). […] The excitation wavelength was set to 295 nm and emission wavelength was monitored at 340 nm. […] Fluorescence was measured in volts.

[4] = Stopped-flow biotin-PEG binding kinetics, 10 kDa; settings: avidin 0.5 μM, biotin-PEG 5.0 μM, 0.1 M phosphate buffer pH 8
Procedure: (§1) Biotin and biotin PEG binding kinetics: Kinetic measurements of avidin-pCBMA conjugates with biotin and biotin-PEG substrates were taken using a stopped-flow spectrometer with fluorescence detection (Applied Photophysics SX20). The dead time of the instrument was 2 ms. The excitation wavelength was 270 nm with 5 nm bandwidth. Instrument permitted to collect 1000 data points throughput the reaction (0.1-450 s). For all experiments avidin concentration was 0.5 μM (final) and biotin or biotin-PEG concentration was 5.0 μM (final). Reactions were initiated by mixing equal volumes of avidin with its substrates in 0.1 M phosphate buffer, pH 8. Fluorescence was measured in volts. Data were fit to single exponential functions using F(t)=F∞·ΔFexp(−kobst) equation, where, kobs is the observed first-order rate constant, F∞ is the final value of fluorescence and ΔF is the amplitude. In case of native avidin kinetics the data were fit to single exponential functions using F(t)=F∞+ΔFexp(−kobst) equation, where, kobs is the observed first-order rate constant, F∞ is the final value of fluorescence and ΔF is the amplitude. […]
(§2) Instrumentation and Sample Analysis Preparations: ^1H and ^13C NMR were recorded on a spectrometer (300 MHz, 75 MHz, Bruker Avance™ 300), with deuterium oxide (D2O), DMSO-d6, and CDCl3. […] Melting points (mp) were measured with a Laboratory Devices Mel-Temp. […]

[5] = work described elsewhere (Kurzban et al.); 337 to 324 nm, blue shift in emission; cited from earlier work
[6] = Stopped-flow biotin-PEG binding kinetics, 550 Da; settings: for Biotin-PEG 550 Da k/s^−1: avidin 0.5 μM, biotin-PEG 5.0 μM, 0.1 M phosphate buffer pH 8
Procedure: Biotin and biotin PEG binding kinetics: Kinetic measurements of avidin-pCBMA conjugates with biotin and biotin-PEG substrates were taken using a stopped-flow spectrometer with fluorescence detection (Applied Photophysics SX20). The dead time of the instrument was 2 ms. The excitation wavelength was 270 nm with 5 nm bandwidth. Instrument permitted to collect 1000 data points throughput the reaction (0.1-450 s). For all experiments avidin concentration was 0.5 μM (final) and biotin or biotin-PEG concentration was 5.0 μM (final). Reactions were initiated by mixing equal volumes of avidin with its substrates in 0.1 M phosphate buffer, pH 8. Fluorescence was measured in volts. Data were fit to single exponential functions using F(t)=F∞·ΔFexp(−kobst) equation, where, kobs is the observed first-order rate constant, F∞ is the final value of fluorescence and ΔF is the amplitude. In case of native avidin kinetics the data were fit to single exponential functions using F(t)=F∞+ΔFexp(−kobst) equation, where, kobs is the observed first-order rate constant, F∞ is the final value of fluorescence and ΔF is the amplitude. All data analysis was performed in Microsoft Excel.
Instrumentation and Sample Analysis Preparations: ^1H and ^13C NMR were recorded on a spectrometer (300 MHz, 75 MHz, Bruker Avance™ 300), with deuterium oxide (D2O), DMSO-d6, and CDCl3. Routine FT-IR spectra were obtained with a Nicolet Magna-IR 560 spectrometer (Thermo). UV-VIS spectra were obtained and used for protein concentration determination using a UV-VIS spectrometer (Lambda 2, PerkinElmer). Melting points (mp) were measured with a Laboratory Devices Mel-Temp. […] The hydrodynamic diameter of samples was measured three times (5 run to each measurement, reported as number distribution) in 0.1 M sodium phosphate, pH 8. Biotin and bio-PEG binding kinetics were measured using a stopped-flow spectrometer with fluorescence detection (Applied Photophysics SX20). […] The excitation wavelength was set to 295 nm and emission wavelength was monitored at 340 nm. […] Fluorescence was measured in volts.

Biotin-aprotinin = target: T2, Biotin-aprotinin (Bos taurus, UniProt P00974); experiment: Stopped-flow biotin-protein binding kinetics, biotin-aprotinin; settings: avidin 0.5 μM, biotin-protein 5.0 μM, 0.1 M phosphate buffer pH 8
T2 construct: purchased Sigma Aldrich
Procedure: (§3) The solution was stirred at 4° C. for 2 hours and protein-biotin conjugates were purified by dialysis using 15 kDa molecular mass cutoff dialysis tube in deionized water and then lyophilized.
(§4) Biotin-Protein binding kinetics: For biotinylated protein binding kinetics avidin conjugates (0.5 μM final) were mixed with biotin-protein (5.0 μM final) in a stopped-flow accessory on PTI QuantaMaster-400 fluorometer (Horiba Instruments Inc.). The dead time of the instrument was 60 ms. The excitation wavelength was 295 nm (to selectively excite tryptophan residues) with a 20 nm bandwidth (Skelly et al., FEBS Lett 262:127-130, 1990). Excitation occurred through a 1.96-mm path in the stopped-flow optical cell, and emission was measured through a 7.68-mm path. […]
(§5) Instrumentation and Sample Analysis Preparations: ^1H and ^13C NMR were recorded on a spectrometer (300 MHz, 75 MHz, Bruker Avance™ 300), with deuterium oxide (D2O), DMSO-d6, and CDCl3. […] Melting points (mp) were measured with a Laboratory Devices Mel-Temp. […] The hydrodynamic diameter of samples was measured three times (5 run to each measurement, reported as number distribution) in 0.1 M sodium phosphate, pH 8. Biotin and bio-PEG binding kinetics were measured using a stopped-flow spectrometer with fluorescence detection (Applied Photophysics SX20). […] The excitation wavelength was set to 295 nm and emission wavelength was monitored at 340 nm. […]

[7] = Stopped-flow binding kinetics of biotin to avidin and avidin-pCBMA conjugates; settings: kobs first-order, avidin 0.5 μM, biotin 5.0 μM, 0.1 M phosphate buffer pH 8
Procedure: as §1, §2

Biotin-HRP = experiment: Stopped-flow biotin-protein binding kinetics, biotin-HRP; settings: avidin 0.5 μM, biotin-protein 5.0 μM, 0.1 M phosphate buffer pH 8
Procedure: as §3, §4, §5

[8] = Stopped-flow biotin-PEG binding kinetics, 5 kDa; settings: avidin 0.5 μM, biotin-PEG 5.0 μM, 0.1 M phosphate buffer pH 8
Procedure: as §1, §2

[9] = Stopped-flow biotin-PEG binding kinetics, 30 kDa; settings: avidin 0.5 μM, biotin-PEG 5.0 μM, 0.1 M phosphate buffer pH 8
Procedure: as §1, §2

[10] = Table 4, low-density avidin conjugates
[11] = Table 9, high-density avidin conjugates

O=C(O)CCCC[C@@H]1SC[C@@H]2NC(=O)N[C@@H]21 [biotin]
effect on tryptophan fluorescence of native avidin incubated with free initiator or free initiation inhibitor (native avidin [1]): restored the quenched tryptophan fluorescence

CC(C)C(=O)NCCC(=O)O [free initiation inhibitor, N-2-methylpropanoyl-β-alanine]
quenching of native avidin tryptophan fluorescence (native avidin [2]): None of the tested concentrations of initiation inhibitor had an effect on fluorescence
effect on tryptophan fluorescence of native avidin incubated with free initiator or free initiation inhibitor (native avidin [1]): did not have effect on fluorescence

CC(C)(Br)C(=O)NCCC(=O)O [free initiator, N-2-bromo-2-methylpropanoyl-β-alanine]
quenching of native avidin tryptophan fluorescence (native avidin [2]): higher degree of fluorescence quenching

Aprotinin [reference compound]
Dh (hydrodynamic size) ([3]; bio-pro substrates, Table 3): 2.4 ± 0.4
substrate size (Dh) ([3]; listed as biotin-aprotinin): 2.4±0.4 nm
substrate size (Dh) ([3]; listed as biotinylated aprotinin): 2.4 nm

Native avidin
Biotin-PEG 10 kDa k/s^−1 [4, 10]: 12.02 s⁻¹
Biotin-PEG 10 kDa k/s^−1 [4, 11]: 12.02 s⁻¹
intrinsic tryptophan fluorescence of avidin upon biotin binding [5]: decreased
Biotin-PEG 550 Da k/s^−1 [6, 10]: 20.93 s⁻¹
Biotin-PEG 550 Da k/s^−1 [6, 11]: 20.93 s⁻¹
binding rate of biotin-PEG 550 Da, slower than biotin ([6]; relative to biotin binding rate): 80%
Biotin-aprotinin k/s^−1 (Biotin-aprotinin; [10]): 73.45 s⁻¹
Biotin-aprotinin k/s^−1 (Biotin-aprotinin; [11]): 73.45 s⁻¹
Biotin k/s^−1 [7, 10]: 105.21 s⁻¹
Biotin k/s^−1 [7, 11]: 105.21 s⁻¹
Biotin-HRP k/s^−1 (Biotin-HRP; [10]): 5.03 s⁻¹
Biotin-HRP k/s^−1 (Biotin-HRP; [11]): 5.03 s⁻¹
Biotin-PEG 5 kDa k/s^−1 [8, 10]: 17.02 s⁻¹
Biotin-PEG 5 kDa k/s^−1 [8, 11]: 17.02 s⁻¹
Biotin-PEG 30 kDa k/s^−1 [9, 10]: 5.89 s⁻¹
Biotin-PEG 30 kDa k/s^−1 [9, 11]: 5.89 s⁻¹
